Data: PubChem BioAssay (NCI)
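Following 48 hours of exposure in 96-well plates, responses at five concentrations were used to interpolate endpoints linearly. TGI: total growth inhibition.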

Columns and labels:
Assay in all cases: NCI tumour cell line growth inhibition, 48 h
XF 498 CNS = tested on: XF 498 CNS
UACC-257 melanoma = tested on: UACC-257 melanoma
NCI-H460 lung = tested on: NCI-H460 lung
HOP-92 NSCLC = tested on: HOP-92 NSCLC
COLO 205 colon = tested on: COLO 205 colon
SK-MEL-28 melanoma = tested on: SK-MEL-28 melanoma
UACC-62 melanoma = tested on: UACC-62 melanoma
HOP-18 NSCLC = tested on: HOP-18 NSCLC
NCI-H23 lung = tested on: NCI-H23 lung
A549 NSCLC = tested on: A549 NSCLC
RXF 393 renal = tested on: RXF 393 renal
SN12C renal = tested on: SN12C renal
CCRF-CEM leukemia = tested on: CCRF-CEM leukemia
HCC-2998 colon = tested on: HCC-2998 colon
UO-31 renal = tested on: UO-31 renal
SF-539 CNS = tested on: SF-539 CNS
SK-MEL-5 melanoma = tested on: SK-MEL-5 melanoma
SF-268 CNS = tested on: SF-268 CNS
SK-OV-3 ovarian = tested on: SK-OV-3 ovarian
HCT-15 colon = tested on: HCT-15 colon
K-562 leukemia = tested on: K-562 leukemia
OVCAR-8 ovarian = tested on: OVCAR-8 ovarian
EKVX NSCLC = tested on: EKVX NSCLC
SW-620 colon = tested on: SW-620 colon
MALME-3M melanoma = tested on: MALME-3M melanoma
HOP-62 NSCLC = tested on: HOP-62 NSCLC
SK-MEL-2 melanoma = tested on: SK-MEL-2 melanoma
M19-MEL melanoma = tested on: M19-MEL melanoma
SNB-78 CNS = tested on: SNB-78 CNS
HCT-116 colon = tested on: HCT-116 colon
KM12 colon = tested on: KM12 colon
LOX IMVI melanoma = tested on: LOX IMVI melanoma
OVCAR-3 ovarian = tested on: OVCAR-3 ovarian
OVCAR-5 ovarian = tested on: OVCAR-5 ovarian
MCF7 breast = tested on: MCF7 breast
DMS 114 small cell lung = tested on: DMS 114 small cell lung
P388/ADR leukemia = tested on: P388/ADR leukemia
NCI/ADR-RES ovarian = tested on: NCI/ADR-RES ovarian
DLD-1 colon = tested on: DLD-1 colon
NCI-H226 lung = tested on: NCI-H226 lung
SNB-75 CNS = tested on: SNB-75 CNS
NCI-H522 lung = tested on: NCI-H522 lung
OVCAR-4 ovarian = tested on: OVCAR-4 ovarian
P388 leukemia = tested on: P388 leukemia
SF-295 CNS = tested on: SF-295 CNS
HT29 colon = tested on: HT29 colon
IGROV1 ovarian = tested on: IGROV1 ovarian
HL-60(TB) leukemia = tested on: HL-60(TB) leukemia
U251 CNS = tested on: U251 CNS
SNB-19 CNS = tested on: SNB-19 CNS
DMS 273 small cell lung = tested on: DMS 273 small cell lung
SN12K1 renal = tested on: SN12K1 renal
KM20L2 colon = tested on: KM20L2 colon
CAKI-1 renal = tested on: CAKI-1 renal
A498 renal = tested on: A498 renal

Q: What does the source list for `CC(C)(C)c1ccc2c(c1)OP1(Oc3cccc4cccnc34)(O2)Oc2ccc(C(C)(C)C)cc2O1`?
A: TGI (XF 498 CNS): 7.56 µM; TGI (UACC-257 melanoma): > 30.4 µM; TGI (NCI-H460 lung): 12.7 µM; TGI (HOP-92 NSCLC): > 100 µM; TGI (COLO 205 colon): 9.02 µM; TGI (SK-MEL-28 melanoma): > 84.9 µM; TGI (UACC-62 melanoma): 12.2 µM; TGI (HOP-18 NSCLC): > 60.5 µM; TGI (NCI-H23 lung): 10.2 µM; TGI (A549 NSCLC): > 54.7 µM; TGI (RXF 393 renal): 16.9 µM; TGI (SN12C renal): 52.9 µM; TGI (CCRF-CEM leukemia): > 25.2 µM; TGI (HCC-2998 colon): 24.1 µM; TGI (UO-31 renal): 13.4 µM; TGI (SF-539 CNS): 30.2 µM; TGI (SK-MEL-5 melanoma): 13.7 µM; TGI (SF-268 CNS): 26.7 µM; TGI (SK-OV-3 ovarian): > 92.1 µM; TGI (HCT-15 colon): 15.3 µM; TGI (K-562 leukemia): 37.5 µM; TGI (OVCAR-8 ovarian): > 100 µM; TGI (EKVX NSCLC): 35.9 µM; TGI (SW-620 colon): > 31.8 µM; TGI (MALME-3M melanoma): 51.3 µM; TGI (HOP-62 NSCLC): 62.1 µM; TGI (SK-MEL-2 melanoma): 43.8 µM; TGI (M19-MEL melanoma): 33.5 µM; TGI (SNB-78 CNS): > 100 µM; TGI (HCT-116 colon): 15.2 µM; TGI (KM12 colon): 21.3 µM; TGI (LOX IMVI melanoma): 17.7 µM; TGI (OVCAR-3 ovarian): 6.44 µM; TGI (OVCAR-5 ovarian): 32 µM; TGI (MCF7 breast): 5.48 µM; TGI (DMS 114 small cell lung): 5.97 µM; TGI (P388/ADR leukemia): 4.69 µM; TGI (NCI/ADR-RES ovarian): 11.1 µM; TGI (DLD-1 colon): 21.2 µM; TGI (NCI-H226 lung): 30.9 µM; TGI (SNB-75 CNS): > 54.2 µM; TGI (NCI-H522 lung): 26.4 µM; TGI (OVCAR-4 ovarian): 6.14 µM; TGI (P388 leukemia): 2.64 µM; TGI (SF-295 CNS): 42.6 µM; TGI (HT29 colon): 15.4 µM; TGI (IGROV1 ovarian): 18.3 µM; TGI (HL-60(TB) leukemia): 6.82 µM; TGI (U251 CNS): 43.8 µM; TGI (SNB-19 CNS): > 100 µM; TGI (DMS 273 small cell lung): 13.8 µM; TGI (SN12K1 renal): 14.2 µM; TGI (KM20L2 colon): 15.4 µM; TGI (CAKI-1 renal): > 23.5 µM; TGI (A498 renal): 34.9 µM
